Activity calls are given as the source filed them. The rule behind the calls is not given here.
How the values were obtained:
Rattus norvegicus [1] = experiment: Antiinflammatory activity in rat assessed as inhibition of carrageenin-induced foot edema at 33 mg/kg, po; format: functional, organism-based; set-up: dose 33 mg/kg
[2] = Ionization constant, pKa of the compound; format: physicochemical
Rattus norvegicus [3] = experiment: Antiinflammatory activity in rat assessed as inhibition of carrageenin-induced foot edema at 100 mg/kg, po; format: functional

Row | pKa [2] | Compound | inhibition (Rattus norvegicus [1]) | inhibition in vivo at 100 mg/kg (Rattus norvegicus [3]) [%]
1 | – | O=C(Nc1ccccc1Cl)C1CN(c2ccccc2)C(=O)C1=O (stereo unspecified) | Active | –
2 | 5.51 | CN1CC(C(=O)Nc2ccc(Cl)cc2)C(=O)C1=O (stereo unspecified) | Active | –
3 | – | CN1CC(C(=O)Nc2ccc(C(F)(F)F)cc2)C(=O)C1=O (stereo unspecified) | Active | –
4 | 5.55 | CN1CC(C(=O)Nc2ccc(F)cc2)C(=O)C1=O (stereo unspecified) | Active | –
5 | – | O=C(Nc1ccc(C(F)(F)F)cc1)C1CN(c2ccccc2)C(=O)C1=O (stereo unspecified) | Active | –
6 | 5.58 | O=C(Nc1ccccc1)C1CN(c2ccccc2)C(=O)C1=O (stereo unspecified) | Active | –
7 | 5.86 | CN1CC(C(=O)Nc2ccccc2)C(=O)C1=O (stereo unspecified) | Active | –
8 | – | COc1ccc(NC(=O)C2CN(c3ccccc3)C(=O)C2=O)cc1 (stereo unspecified) | Active | –
9 | 5.84 | COc1ccc(NC(=O)C2CN(C)C(=O)C2=O)cc1 (stereo unspecified) | Active | –
10 | 6.19 | COc1ccccc1NC(=O)C1CN(c2ccccc2)C(=O)C1=O (stereo unspecified) | Active | –
11 | 5.79 | Cc1ccc(NC(=O)C2CN(C)C(=O)C2=O)cc1 (stereo unspecified) | Active | –
12 | 6.08 | COc1ccccc1NC(=O)C1CN(C)C(=O)C1=O (stereo unspecified) | Active | –
13 | – | O=C(Nc1ccc(Cl)cc1)C1CN(c2ccccc2)C(=O)C1=O (stereo unspecified) | Active | –
14 | – | CC(=O)Oc1ccccc1C(=O)O [ASPIRIN] | – | 50
15 | 6.49 | CCOC(=O)c1ccccc1NC(=O)C1CN(C)C(=O)C1=O (stereo unspecified) | Active | –
16 | 5.87 | O=C(Nc1ccccc1C(F)(F)F)C1CN(c2ccccc2)C(=O)C1=O (stereo unspecified) | Active | –
